# Results as given in article PMC8119466, “A screen of FDA-approved drugs identifies inhibitors of protein tyrosine phosphatase 4A3 (PTP4A3 or PRL-3)” (Scientific Reports, 2021).
# Counter-ions that a name gives are not always drawn. Like-named read-outs stand apart in the source and are kept apart here.
# How the values were obtained:
# Assay type in all cases: biochemical
# [1] = molecular target: T1, recombinant PRL-3 (Homo sapiens, UniProt O75365); test: In vitro phosphatase assay (DiFMUP hydrolysis), PRL-3
# T1 construct: 6xHis (N, cleaved yes); made in house; host or cells: E. coli One Shot BL21 Star
# T1 sequence (O75365 whole entry): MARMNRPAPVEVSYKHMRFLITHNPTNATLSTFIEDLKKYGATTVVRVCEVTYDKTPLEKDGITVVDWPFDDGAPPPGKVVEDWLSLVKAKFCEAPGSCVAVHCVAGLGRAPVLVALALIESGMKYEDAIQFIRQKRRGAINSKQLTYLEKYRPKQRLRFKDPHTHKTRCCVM
# [2] = molecular target: T2, recombinant PRL-2 (Homo sapiens, UniProt Q12974); test: In vitro phosphatase assay (DiFMUP hydrolysis), PRL-2;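 note: PRL-2 activity read as DiFMUP hydrolysis after 20 min at room temperature with drug, enzyme first pre-reduced at 4 °C for 20 min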
# T2 construct: 6xHis (N, cleaved yes); made in house; host or cells: E. coli One Shot BL21 Star
# T2 sequence (Q12974 1-167): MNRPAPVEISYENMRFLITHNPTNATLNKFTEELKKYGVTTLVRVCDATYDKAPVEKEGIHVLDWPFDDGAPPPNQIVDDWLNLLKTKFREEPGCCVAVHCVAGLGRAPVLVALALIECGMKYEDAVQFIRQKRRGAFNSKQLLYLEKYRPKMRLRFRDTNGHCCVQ
# [3] = molecular target: T3, recombinant PRL-1 (Homo sapiens, UniProt Q93096); test: In vitro phosphatase assay (DiFMUP hydrolysis), PRL-1
# T3 construct: 6xHis (N, cleaved yes); made in house; host or cells: E. coli One Shot BL21 Star
# T3 sequence (Q93096 1-173): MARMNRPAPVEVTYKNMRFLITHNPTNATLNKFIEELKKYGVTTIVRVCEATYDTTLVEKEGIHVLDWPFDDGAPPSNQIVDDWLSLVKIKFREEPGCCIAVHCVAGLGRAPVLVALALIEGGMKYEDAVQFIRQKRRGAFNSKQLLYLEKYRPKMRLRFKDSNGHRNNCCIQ
# [4] = FDA-approved drug screen, compared to DMSO
# [5] = FDA-approved drug screen, activity compared to DMSO
Structure (SMILES),"% Phosphatase Activity (compared to DMSO) PRL-3 [1, 4] [%]","% Phosphatase Activity (compared to DMSO) PRL-2 [2, 4] [%]","% Phosphatase Activity (compared to DMSO) PRL-1 [3, 4] [%]",further results
CC(C)c1nc(CN(C)C(=O)N[C@@H](CCN2CCOCC2)C(=O)N[C@H](CC[C@H](Cc2ccccc2)NC(=O)OCc2cncs2)Cc2ccccc2)cs1 [Cobicistat (GS-9350)],95,95,88,–
COc1c2occc2cc2ccc(=O)oc12 [Methoxsalen],78,99,81,–
Nc1c(CC(=O)[O-])cccc1C(=O)c1ccccc1.O.[Na+] [Amfenac Sodium Monohydrate],67,108,89,–
CC(C)C(=O)Nc1ccc([N+](=O)[O-])c(C(F)(F)F)c1 [Flutamide],77,76,81,–
NS(=O)(=O)c1cc(C(=O)O)c(NCc2ccco2)cc1Cl [Furosemide],114,107,97,–
Cc1nccn1CC1CCc2c(c3ccccc3n2C)C1=O.Cl (stereo not drawn) [Ondansetron HCl],96,108,103,–
Cc1cn([C@H]2O[C@@H](CO)[C@H](O)[C@H]2F)c(=O)[nH]c1=O [Clevudine],89,117,103,–
Clc1ccc(COC(Cn2ccnc2)c2ccc(Cl)cc2Cl)c(Cl)c1 (stereo not drawn) [Miconazole],86,101,109,–
Cl.NCC1(CC(=O)O)CCCCC1 [Gabapentin HCl],85,87,99,–
CC(C(=O)O)c1cccc(C(=O)c2ccccc2)c1 (stereo not drawn) [Ketoprofen],87,95,105,–
CCN(CC)CCOC(=O)c1ccc(N)cc1 [Procaine HCl],92,112,108,–
CNCC[C@H](Oc1cccc2ccccc12)c1cccs1 [Duloxetine HCl],–,–,–,% Phosphatase Activity (compared to DMSO) PRL-3 [1]: 89%; % Phosphatase Activity (compared to DMSO) PRL-2 [2]: 107%; % Phosphatase Activity (compared to DMSO) PRL-1 [3]: 97%
OC(CNCC(O)C1CCc2cc(F)ccc2O1)C1CCc2cc(F)ccc2O1 (stereo not drawn) [Nebivolol],87,81,105,–
CCCCC(=O)O[C@H]1CC[C@H]2[C@@H]3CCc4cc(O)ccc4[C@H]3CC[C@]12C [Estradiol valerate],85,99,103,–
CO[C@H]1O[C@@H]2O[C@@]3(C)CC[C@H]4[C@H](C)CC[C@@H]([C@H]1C)[C@@]24OO3 [Artemether],85,96,87,–
C#C[C@]1(O)C=C[C@H]2[C@@H]3CCC4=CC(=O)CC[C@@H]4[C@H]3CC[C@@]21CC [Gestodene],77,102,91,–

Structure (SMILES),"% Phosphatase Activity (compared to DMSO) PRL-3 [1, 4] [%]","% Phosphatase Activity (compared to DMSO) PRL-2 [2, 4] [%]","% Phosphatase Activity (compared to DMSO) PRL-1 [3, 4] [%]",further results
CCN(CC)CCNC(=O)c1ccc(N)cc1 [Procainamide HCl],75,127,94,–
CC(=O)NC(CC(C)C)C(=O)O (stereo not drawn) [Acetylleucine],89,99,110,–
"Cl.NCC(O)c1ccc(O)cc1 (racemic) [(+,-)-Octopamine HCl]",78,102,110,–
CC[C@]1(O)C[C@H]2CN(CCc3c([nH]c4ccccc34)[C@@](C(=O)OC)(c3cc4c(cc3OC)N(C=O)[C@H]3[C@@](O)(C(=O)OC)[C@H](OC(C)=O)[C@]5(CC)C=CCN6CC[C@]43[C@@H]65)C2)C1 [Vincristine],–,–,–,"% Phosphatase Activity (compared to DMSO) PRL-3 [1, 5]: 61%; % Phosphatase Activity (compared to DMSO) PRL-2 [2, 5]: 100%; % Phosphatase Activity (compared to DMSO) PRL-1 [3, 5]: 85%"
C[N+](C)(C)CCCCCC[N+](C)(C)C [Hexamethonium Bromide],84,89,87,–
Cc1cnc(C(=O)NCCc2ccc(S(=O)(=O)NC(=O)NC3CCCCC3)cc2)cn1 [Glipizide],–,–,–,% Phosphatase Activity (compared to DMSO) PRL-3 [1]: 75%; % Phosphatase Activity (compared to DMSO) PRL-2 [2]: 98%; % Phosphatase Activity (compared to DMSO) PRL-1 [3]: 97%
C[C@@H]1O[C@@H]1P(=O)(O)O.NC(CO)(CO)CO [Fosfomycin Tromethamine],92,101,100,–
CN[C@H](CC(C)C)C(=O)N[C@H]1C(=O)N[C@@H](CC(N)=O)C(=O)N[C@H]2C(=O)N[C@H]3C(=O)N[C@H](C(=O)N[C@H](C(=O)O)c4cc(O)cc(O)c4-c4cc3ccc4O)[C@H](O)c3ccc(c(Cl)c3)Oc3cc2cc(c3O[C@@H]2O[C@H](CO)[C@@H](O)[C@H](O)[C@H]2O[C@H]2C[C@](C)(N)[C@H](O)[C@H](C)O2)Oc2ccc(cc2Cl)[C@H]1O [Vancomycin HCl],–,–,–,"% Phosphatase Activity (compared to DMSO) PRL-3 [1, 5]: 99%; % Phosphatase Activity (compared to DMSO) PRL-2 [2, 5]: 109%; % Phosphatase Activity (compared to DMSO) PRL-1 [3, 5]: 99%"
Cc1cc2c(s1)Nc1ccccc1N=C2N1CCN(C)CC1 [Olanzapine],80,97,99,–
CC(=O)O[C@]1(C(C)=O)CC[C@H]2[C@@H]3C=C(Cl)C4=CC(=O)CC[C@]4(C)[C@H]3CC[C@@]21C [Chlormadinone acetate],81,76,85,–
C[C@H]1O[C@@H](O[C@H]2[C@@H](O)C[C@H](O[C@H]3[C@@H](O)C[C@H](O[C@H]4CC[C@@]5(C)[C@H](CC[C@@H]6[C@@H]5C[C@@H](O)[C@]5(C)[C@@H](C7=CC(=O)OC7)CC[C@]65O)C4)O[C@@H]3C)O[C@@H]2C)C[C@H](O)[C@@H]1O [Digoxin],76,95,102,–
"Oc1c(Cl)cc(Cl)cc1Sc1cc(Cl)cc(Cl)c1O [Bithionol, reference compound]",6,80,52,"IC50 ([1]; 2.5 µM protein, DiFMUP at KM, read-out: Calculated IC50, PRL-3 phosphatase activity): 33 ± 2 µM; IC50 ([2]; 2.5 µM protein, DiFMUP at KM, read-out: Calculated IC50, PRL-2 phosphatase activity): 115 ± 34 µM; IC50 ([3]; 2.5 µM protein, DiFMUP at KM, read-out: Calculated IC50, PRL-1 phosphatase activity): 79 ± 25 µM"
CC12CCC(CC1=O)C2(C)C (stereo not drawn) [(+)-Camphor],104,132,116,–
CC[C@H]1OC(=O)[C@H](C)[C@@H](O[C@H]2C[C@@](C)(OC)[C@@H](O)[C@H](C)O2)[C@H](C)[C@@H](O[C@@H]2O[C@H](C)C[C@H](N(C)C)[C@H]2O)[C@](C)(O)C[C@@H](C)CN(C)[C@H](C)[C@@H](O)[C@]1(C)O [Azithromycin Dihydrate],73,99,98,–
Cc1cccc(N(C)C(=S)Oc2ccc3ccccc3c2)c1 [Tolnaftate],–,–,–,"% Phosphatase Activity (compared to DMSO) PRL-3 [1, 5]: 89%; % Phosphatase Activity (compared to DMSO) PRL-2 [2, 5]: 114%; % Phosphatase Activity (compared to DMSO) PRL-1 [3, 5]: 98%"
